Values quoted from earlier work as cited in patent publication US7307164B2, “β-amino heterocyclic dipeptidyl peptidase inhibitors for the treatment or prevention of diabetes” (Merck & Co., Inc., priority 2002, dated 2007).

What was measured:
DP-IV = molecular target: T1, DP-IV (Homo sapiens, UniProt P27487)
T1 construct: GRF is rapidly degraded in plasma to GRF[3-44]

hematopoiesis = conditions: mouse, cyclophosphamide-induced neutropenia
cardiac allograft = conditions: rats; survival from day 7 to day 14

T1 sequence (P27487 whole entry): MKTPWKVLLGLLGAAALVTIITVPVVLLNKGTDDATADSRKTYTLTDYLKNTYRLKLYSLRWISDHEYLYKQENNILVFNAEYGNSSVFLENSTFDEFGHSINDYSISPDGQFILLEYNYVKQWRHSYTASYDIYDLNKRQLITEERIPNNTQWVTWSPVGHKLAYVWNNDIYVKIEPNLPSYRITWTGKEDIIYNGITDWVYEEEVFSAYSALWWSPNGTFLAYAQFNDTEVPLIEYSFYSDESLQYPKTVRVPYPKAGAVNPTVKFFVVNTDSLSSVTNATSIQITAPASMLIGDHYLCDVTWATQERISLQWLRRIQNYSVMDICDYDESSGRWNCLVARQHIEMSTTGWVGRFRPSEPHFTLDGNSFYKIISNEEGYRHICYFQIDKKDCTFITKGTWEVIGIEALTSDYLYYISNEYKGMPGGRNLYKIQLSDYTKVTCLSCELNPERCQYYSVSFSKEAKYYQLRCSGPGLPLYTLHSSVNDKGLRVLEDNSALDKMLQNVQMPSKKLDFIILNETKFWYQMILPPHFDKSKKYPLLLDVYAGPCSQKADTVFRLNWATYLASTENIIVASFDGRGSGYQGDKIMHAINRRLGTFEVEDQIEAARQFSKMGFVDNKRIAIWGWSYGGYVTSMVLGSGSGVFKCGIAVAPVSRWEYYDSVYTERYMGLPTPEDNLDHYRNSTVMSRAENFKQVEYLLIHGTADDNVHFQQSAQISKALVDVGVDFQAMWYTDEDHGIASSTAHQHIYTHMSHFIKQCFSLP

CC[C@H](C)[C@H](N)C(=O)N1CCC[C@H]1C(=O)N[C@H](C(=O)O)[C@@H](C)CC [diprotin A]
degradation of GRF in plasma to GRF[3-44] (DP-IV): prevented

CC(C)[C@H](N)C(=O)N1CCC[C@H]1B(O)O [Val-Boro-Pro]
hematopoiesis (hematopoiesis): stimulated hematopoiesis

CC(C)N1CCC(c2ccccc2)(c2ccccc2)CC1 [Prodipine, Pro-Pro-diphenyl-phosphonate]
cardiac allograft survival (cardiac allograft): double cardiac allograft survival
